The target of test [1] is T1, catalytic domain (JH1, amino acids 826-1132) of human JAK2 (Homo sapiens, UniProt O60674).
T1 construct: catalytic domain (JH1, amino acids 826-1132) of human JAK2; FLAG (N); purchased Carna Biosciences 08-445-20N; host or cells: baculovirus expression system
The test is described as follows: JAK2 LanthaScreen JH1 Binding Assay. Conditions: 50 nM fluorescent JAK2-JH1 tracer, 2 hours at 25° C.; read-out: JH1 BIND (EX. A). The method, then: Example A. JAK2 LanthaScreen JH1 Binding Assay
JAK2 JH1 binding assay utilizes catalytic domain (JH1, amino acids 826-1132) of human JAK2 expressed as N-terminal FLAG-tagged, biotinylated protein in a baculovirus expression system (Carna Biosciences, Product #08-445-20N). The assay was conducted in black 384-well polystyrene plates in a final reaction volume of 20 μL. JAK2 JH1 (1.5 nM) was incubated with compounds (100 nL serially diluted in DMSO) in the presence of 50 nM fluorescent JAK2-JH1 tracer and 0.5 nM Streptavidin-Tb cryptate (Cisbio Part #610SATLB) in assay buffer (50 mM Tris, pH=7.5, 10 mM MgCl2, 0.01% Brij-35, 0.1% BSA, 1 mM EGTA, 5% Glycerol and 5 mM DTT). Non-specific binding was accessed in the presence of 2 mM ATP. After incubation for 2 hours at 25° C., LanthaScreen signals were read on a PHERAstar FS plate reader (BMG LABTECH). Data was analyzed with IDBS Xlfit and GraphPad Prism 5.0 software using a four parameter dose response curve to determine IC50 for each compound.
(In general: TR-FRET usually uses a lanthanide donor and a delayed reading to cut background.)

In test [2] the target is T2, pseudo-kinase domain (JH2, amino-acids 536-812) of human Wild Type JAK2 (Homo sapiens, UniProt O60674, F794H/W659A/W777A).
T2 construct: JH2, amino-acids 536-812 with 3 surface mutations W659A, W777A, F794H; His (C); purchased BPS Bioscience 79463; host or cells: baculovirus expression system
As to the kind of experiment: JAK2 LanthaScreen JH2-WT Binding Assay. Conditions: 50 nM Fluorescent JAK2-JH2 Tracer, 1 hour at 25° C.; read-out: JH2 BIND WT (EX. B). The method, then:
Example B. JAK2 LanthaScreen JH2-WT Binding Assay
(§1) JAK2 JH2-WT binding assay utilizes pseudo-kinase domain (JH2, amino-acids 536-812 with 3 surface mutations W659A, W777A, F794H) of human Wild Type JAK2 expressed as C-terminal His-Avi-tagged, biotinylated protein in a baculovirus expression system (BPS Bioscience, Catalog #79463). The assay was conducted in black 384-well polystyrene plates in a final reaction volume of 20 μL. JAK2 JH2-WT (0.145 nM) was incubated with compounds (100 nL serially diluted in DMSO) in the presence of 50 nM Fluorescent JAK2-JH2 Tracer (MedChem Express Catalog #HY-102055) and 0.25 nM Streptavidin-Tb cryptate (Cisbio Part #610SATLB) in assay buffer (50 mM Tris, pH=7.5, 10 mM MgCl2, 0.01% Brij-35, 0.1% BSA, 1 mM EGTA, 5% Glycerol and 5 mM DTT). Non-specific binding was accessed in the presence of 2 mM ATP. After incubation for 1 hour at 25° C., LanthaScreen signals were read on a PHERAstar FS plate reader (BMG LABTECH). Data was analyzed with IDBS Xlfit and GraphPad Prism 5.0 software using a four parameter dose response curve to determine IC50 for each compound.

For test [3], the target named is T3, pseudo-kinase domain (JH2, amino-acids 536-812) of human V617F mutant JAK2 (Homo sapiens, UniProt O60674, F794H/V617F/W659A/W777A).
T3 construct: JH2, amino-acids 536-812 with 3 surface mutations W659A, W777A, F794H; His (C); purchased BPS Bioscience 79498; host or cells: baculovirus expression system
The test is described as follows: JAK2 LanthaScreen JH2-V617F Binding Assay. Conditions: 50 nM Fluorescent JAK2-JH2 Tracer, 1 hour at 25° C.; read-out: JH2 BIND V617F (Ex. C). The method, then: Example C. JAK2 LanthaScreen JH2-V617F Binding Assay
as §1, with “JH2-V617F” for “JH2-WT”, “V617F mutant” for “Wild Type”, “#79498).” for “#79463).”, “JH2-V617F (0.26” for “JH2-WT (0.145”

Test [4] addresses T4, catalytic domain (JH1, amino acids 808-1132) of human JAK2 (Homo sapiens, UniProt O60674).
T4 construct: catalytic domain (JH1, amino acids 808-1132) of human JAK2; His (N); purchased BPS Bioscience 40450; host or cells: baculovirus expression system
As to the kind of experiment: JAK2 HTRF Enzyme Activity Assay. It is filed as biochemical. Conditions: ATP (30 μM or 1 mM; not stated which for the table), 60 minutes at 25° C.; read-out: JAK2 HTRF (Ex. D). The method, then:
Example D. JAK2 HTRF Enzyme Activity Assay
JAK2 enzyme activity assays utilize catalytic domain (JH1, amino acids 808-1132) of human JAK2 expressed as N-terminal His-tagged protein in a baculovirus expression system (BPS Bioscience, Catalog #40450). The assays was conducted in black 384-well polystyrene plates in a final reaction volume of 20 μL. JAK2 (0.015 nM) was incubated with compounds (100 nL serially diluted in DMSO) in the presence of ATP (30 μM or 1 mM) and 500 nM Biotin-labeled EQEDEPEGDYFEWLE (SEQ ID NO.: 1) peptide (BioSource International, custom synthesis) in assay buffer (50 mM Tris, pH=7.5, 10 mM MgCl2, 0.01% Brij-35, 0.1% BSA, 1 mM EGTA, 5% Glycerol and 5 mM DTT) for 60 minutes at 25° C. The reactions were stopped by the addition of 10 μL of detection buffer (50 mM Tris, pH 7.8, 0.5 mg/mL BSA, 150 mM NaCl), supplemented with EDTA, LANCE Eu-W1024 anti-phosphotyrosine (PY20), (PerkinElmer, Catalog #AD0067) and Streptavidin SureLight APC (PerkinElmer Catalog #CR130-100), for a final concentration of 15 mM, 1.5 nM and 75 nM, respectively. HTRF signals were read after 30 minutes incubation at room temperature on a PHERAstar FS plate reader (BMG LABTECH). Data was analyzed with TDBS Xlfit and GraphPad Prism 5.0 software using a four parameter dose response curve to determine IC50 for each compound.

pIC50: −log10 of the molar value.

T1 sequence (O60674 826-1132): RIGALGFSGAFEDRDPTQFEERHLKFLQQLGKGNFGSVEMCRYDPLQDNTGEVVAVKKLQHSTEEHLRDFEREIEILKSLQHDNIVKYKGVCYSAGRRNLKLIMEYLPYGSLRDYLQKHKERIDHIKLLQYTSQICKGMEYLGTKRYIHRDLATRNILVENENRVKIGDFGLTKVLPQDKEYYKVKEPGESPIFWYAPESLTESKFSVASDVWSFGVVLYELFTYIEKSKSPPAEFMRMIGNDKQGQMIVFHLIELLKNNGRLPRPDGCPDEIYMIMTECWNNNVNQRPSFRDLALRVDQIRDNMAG
T2 sequence (O60674 536-812 W659A/W777A/F794H): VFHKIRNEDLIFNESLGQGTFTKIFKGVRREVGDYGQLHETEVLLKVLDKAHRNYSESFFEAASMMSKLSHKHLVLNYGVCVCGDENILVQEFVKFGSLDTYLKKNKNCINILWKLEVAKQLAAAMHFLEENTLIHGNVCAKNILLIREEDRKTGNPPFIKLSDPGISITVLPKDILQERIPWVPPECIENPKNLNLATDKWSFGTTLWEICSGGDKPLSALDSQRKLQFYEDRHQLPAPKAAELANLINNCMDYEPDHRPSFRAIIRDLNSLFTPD
T4 sequence (O60674 808-1132): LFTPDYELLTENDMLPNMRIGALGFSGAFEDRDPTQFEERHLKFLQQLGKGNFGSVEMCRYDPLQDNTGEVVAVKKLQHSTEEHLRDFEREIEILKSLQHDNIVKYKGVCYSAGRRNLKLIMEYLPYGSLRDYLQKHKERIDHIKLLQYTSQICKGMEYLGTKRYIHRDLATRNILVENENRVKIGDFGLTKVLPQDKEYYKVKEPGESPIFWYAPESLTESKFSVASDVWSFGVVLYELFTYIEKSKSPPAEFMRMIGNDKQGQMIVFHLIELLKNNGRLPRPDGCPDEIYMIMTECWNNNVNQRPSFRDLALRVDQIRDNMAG
T3 sequence (O60674 536-812 V617F/W659A/W777A/F794H): as the sequence (O60674 536-812 W659A/W777A/F794H) above, with V82F counted along it

As to `[2H]C([2H])([2H])n1c(=O)n([C@@H]2CC[C@@H](NC(=O)OC)C2)c2cc(Nc3ccc4cc(F)cc(C(F)(F)F)c4n3)ncc21` [Example 27, Methyl ((1R,3R)-3-(6-((6-fluoro-8-(trifluoromethyl)quinolin-2-yl)amino)-3-(methyl-d3)-2-oxo-2,3-dihydro-1H-imidazo[4,5-c]pyridin-1-yl)cyclopentyl)carbamate], the pIC50 in test [1] is below 6.00; in test [2] it was at least 8.00; in test [3], at least 8.00; in test [4], below 6.00.
Take `[2H]C([2H])([2H])n1c(=O)n([C@@H]2CC[C@@H](NC(=O)OC)C2)c2cc(Nc3ccc4c(C(C)(C)O)ccc(C(F)(F)F)c4n3)ncc21` [Example 47, Methyl ((1R,3R)-3-(6-((5-(2-hydroxypropan-2-yl)-8-(trifluoromethyl)quinolin-2-yl)amino)-3-(methyl-d3)-2-oxo-2,3-dihydro-1H-imidazo[4,5-c]pyridin-1-yl)cyclopentyl)carbamate]: the pIC50 in test [1] was below 6.00; in test [2], at least 8.00; in test [3], at least 8.00; in test [4], below 6.00.
Regarding `COC(=O)N[C@@H]1CC[C@@H](n2c(=O)n(C)c3cnc(Nc4ccc5cc(Cl)cc(C(F)(F)F)c5n4)cc32)C1` [Example 25, Methyl ((1R,3R)-3-(6-((6-chloro-8-(trifluoromethyl)quinolin-2-yl)amino)-3-methyl-2-oxo-2,3-dihydro-1H-imidazo[4,5-c]pyridin-1-yl)cyclopentyl)carbamate], the pIC50 in test [1] was below 6.00; in test [2], at least 8.00; in test [3] it was at least 8.00; in test [4], below 6.00.
On to `[2H]C([2H])([2H])n1c(=O)n([C@@H]2CC[C@@H](NC(=O)OC)C2)c2cc(Nc3cc(NS(C)(=O)=O)c4cccc(C(F)(F)F)c4n3)ncc21` [Example 23, Methyl ((1R,3R)-3-(3-(methyl-d3)-6-((4-(methylsulfonamido)-8-(trifluoromethyl)quinolin-2-yl)amino)-2-oxo-2,3-dihydro-1H-imidazo[4,5-c]pyridin-1-yl)cyclopentyl)carbamate], for which the pIC50 in test [1] was below 6.00; in test [2] it was 7.00 to 8.00; in test [3] it was 7.00 to 8.00; in test [4] it was below 6.00.
Regarding `[2H]C([2H])([2H])n1c(=O)n([C@@H]2CC[C@@H](NC(=O)OC)C2)c2cc(Nc3cc(C(C)(C)C#N)c4cccc(C(F)(F)F)c4n3)ncc21` [Example 19, Methyl ((1R,3R)-3-(6-((4-(2-cyanopropan-2-yl)-8-(trifluoromethyl)quinolin-2-yl)amino)-3-(methyl-d3)-2-oxo-2,3-dihydro-1H-imidazo[4,5-c]pyridin-1-yl)cyclopentyl)carbamate], the pIC50 in test [1] was below 6.00; in test [2], at least 8.00; in test [3] it was at least 8.00; in test [4], below 6.00.
Take `[2H]C([2H])([2H])n1c(=O)n([C@@H]2CC[C@@H](NC(=O)OC)C2)c2cc(Nc3cc(C(C)(C)O)c4cc(Cl)cc(C(F)(F)F)c4n3)ncc21` [Example 20, Methyl ((1R,3R)-3-(6-((6-chloro-4-(2-hydroxypropan-2-yl)-8-(trifluoromethyl)quinolin-2-yl)amino)-3-(methyl-d3)-2-oxo-2,3-dihydro-1H-imidazo[4,5-c]pyridin-1-yl)cyclopentyl)carbamate]: the pIC50 in test [1] was below 6.00; in test [2] it was at least 8.00; in test [3] it was at least 8.00; in test [4], below 6.00.
Consider `[2H]C([2H])([2H])n1c(=O)n([C@@H]2CC[C@@H](NC(=O)OC)C2)c2cc(Nc3cc(C(C)(O)C(F)(F)F)c4cccc(C(F)(F)F)c4n3)ncc21` (stereo partly drawn) [Example 3, Methyl ((1R,3R)-3-(3-(methyl-d3)-2-oxo-6-((4-(1,1,1-trifluoro-2-hydroxypropan-2-yl)-8-(trifluoromethyl)quinolin-2-yl)amino)-2,3-dihydro-1H-imidazo[4,5-c]pyridin-1-yl)cyclopentyl)carbamate], for which the pIC50 in test [1] was below 6.00; in test [2] it was at least 8.00; in test [3], at least 8.00; in test [4] it was below 6.00.
Regarding `[2H]C([2H])([2H])n1c(=O)n([C@@H]2CC[C@@H](NC(=O)OC)C2)c2cc(Nc3ccc4ncc(C(F)(F)F)n4n3)ncc21` [Example 31, Methyl ((1R,3R)-3-(3-(methyl-d3)-2-oxo-6-((3-(trifluoromethyl)imidazo[1,2-b]pyridazin-6-yl)amino)-2,3-dihydro-1H-imidazo[4,5-c]pyridin-1-yl)cyclopentyl)carbamate], the pIC50 in test [1] is below 6.00; in test [2], at least 8.00; in test [3] it was at least 8.00; in test [4] it was below 6.00.
As to `[2H]C([2H])([2H])n1c(=O)n([C@@H]2CC[C@@H](NC(=O)OC)C2)c2cc(Nc3cc(C(=O)N(C)C(C)C)c4cccc(C(F)(F)F)c4n3)ncc21` [Example 10, Methyl ((1R,3R)-3-(6-((4-(isopropyl(methyl)carbamoyl)-8-(trifluoromethyl)quinolin-2-yl)amino)-3-(methyl-d3)-2-oxo-2,3-dihydro-1H-imidazo[4,5-c]pyridin-1-yl)cyclopentyl)carbamate], the pIC50 in test [1] was below 6.00; in test [2] it was at least 8.00; in test [3], at least 8.00; in test [4], below 6.00.

Values taken from US20250304582A1, “Bicyclic Ureas As Kinase Inhibitors” (Incyte Corporation, priority 2024, published 2025).
